Measured values reported in patent US11352399B2, “Peptide for toll-like receptor (TLR) inhibition and pharmaceutical composition comprising same” (GENESEN CO., LTD., priority 2017, dated 2022).

What was measured:
[1] = system: mBMDM cells (Poly(I:C)-induced); assay: Poly(I:C)-induced IFN-β generation in mBMDM cells; type: cell-based, mouse
NLRP3 inflammasome = assay: IL-1β secretion (ELISA) in LPS/ATP-treated THP1 cells; type: cell-based, human; details: TIP1 and LPS/ATP
[2] = system: mBMDM cells (LPS-induced); assay: LPS-induced cytokine and NO secretion in mBMDM cells; type: cell-based, mouse
Description: RAW 264.7 cells, THP1 cells, and mBMDM cells were dispensed into 96-well plates to a cell number of 2×10^5 cells/well, or into 24-well plates to a cell number of 5×10^5 cells/well. Incubation was performed overnight. Subsequently, combined treatment with TIP1 and LPS was performed. After 24 hours, secretion levels of IFN-β, IL-6, and TNF-α were measured using a […] (BioLegend), Mouse IL-6 Platinum ELISA (eBiosciences), and a Mouse TNF alpha ELISA Ready SET-Go! kit (eBiosciences). Absorbance was measured at 450 nm using a microplate reader spectrophotometer (Molecular Devices), and the results were analyzed using Softmax Pro 5.3 software (Molecular Devices Inc.).
(§1) RAW 264.7 cells and mBMDM cells were dispensed into 96-well plates (BD Biosciences) to a cell number of 2×10^5 cells/well and incubated overnight. Then, a NO level of the culture supernatant was measured using a NO detection kit (iNtRON Biotechnology Inc., Seongnam, Korea). Absorbance was measured at 550 nm using a microplate reader spectrophotometer (Molecular Devices Inc.), and the results were analyzed using Softmax Pro 5.3 software (Molecular Devices Inc.).
TNF-α, IL-6, IFN-β levels in the culture supernatant of mBMDM cells were measured using mouse TNF-α, IL-6, IFN-β Ready-SET-Go! ELISA kits according to the method described in Example 2-5, and a NO level in the supernatant was measured according to the method described in Example 2-7. The results are illustrated in FIGS. 6(a)-6(d).

TLR4 signaling pathways = assay: Western blotting of NF-κB and MAPK in LPS-treated hPBMC cells; type: cell-based, human; details: LPS together with TIP1
Description: In order to perform Western blotting, a pre-protein extraction solution (M-PER, Thermo Fisher Scientific Inc.) was mixed with a protease and phosphatase inhibitor mixture, and was added to RAW 264.7 cell or hPBMC cell pellets. The pellets were cooled for 10 minutes, and then the lysates were centrifuged at 16000×g for 10 minutes. Then, NE-PER nuclear and cytoplasmic extraction reagents (Thermo Fisher Scientific Inc.) were used to extract cytoplasmic and nuclear proteins, respectively, and a BCA kit (Sigma-Alderich Co. LLC) was used to measure concentrations of the proteins. Subsequently, the same amounts of proteins were developed on SDS-polyacrylamide gels, and electrophoresis was performed using the Mini-PROTEAN Tetra Cell two-dimensional electrophoresis system (Bio-Rad Laboratories, Hercules, Calif., USA). The membrane was immunoblotted with primary antibodies by gentle shaking overnight at a temperature of 4° C. […] Then, after thorough shaking with PBST, the membrane was incubated with anti-mouse/-rabbit HRP-conjugated secondary antibodies (Thermo Fisher Scientific Inc.) for 2 hours; and the proteins were detected with SuperSignal West Pico ECL solution (Thermo Fisher Scientific Inc.) and were visualized with the Fuji LAS-3000 system (Fujifilm, Tokyo, Japan). […]

NF-κB (p-p65) = assay: Confocal microscopy of NF-κB activity (p-p65) in LPS-treated RAW 264.7 cells; type: cell-based, mouse; details: LPS together with TIP1, FIG. 3
Description: RAW 264.7 cells and THP1 cells were dispensed into 24-well plates to a cell number of 2×10^5 cells/well, and then grown in an incubator overnight. Subsequently, combined treatment with TIP1 and LPS was performed. After 24 hours, the RAW 264.7 cells and the THP1 cells were fixed with 3.7% formaldehyde (Sigma-Aldrich Co. LLC) for 15 minutes, and immersed into 0.2% Triton X-100 (AMRESCO, Solon, Ohio, USA) for 15 minutes. Then, washing with PBS was performed three times and blocking with 2% BSA solution was performed. The blocked cells were incubated for 2 hours with TIP1-FITC (25 μM; Peptron, Inc., Daejeon, Korea), p-p65, TLR4, Myd88, TOM20 (1:1000; Santa Cruz Biotechnology Inc.), and NLRP3 (Adipogen) antibodies. Then, washing with PBS was performed three times. Subsequently, the cells were incubated with AlexaFluor […] and/or 488 and/or 546-conjugated secondary antibodies (Invitrogen, Carlsbad, Calif., USA) for 1 hour, and washed three times with PBS. Subsequently, the cells were stained at room temperature for 15 minutes using 5 μM Hoechst 33258 (Sigma-Aldrich Co.), and the number of the fluorescently stained cells was counted using a confocal laser scanning microscope (LSM-700, Carl Zeiss MicroImaging GmbH). The images were analyzed using Zen 2009 software.
The results are illustrated in FIG. 3.

RAW 264.7 cells = assay: NO secretion level in RAW 264.7 culture supernatant; type: cell-based, mouse; details: TIP1 and LPS
Description: as §1
In addition, according to the method described in Example 2-7, a NO level in the culture supernatant of RAW 264.7 cells was measured using a NO detection kit. The results are illustrated in FIGS. 5(a)-5(c).

TLR7/8 = assay: TNF-α secretion in RAW 264.7 cells with R848; type: cell-based, mouse
[3] = system: liver tissues of C57BL/6J mice; assay: Cytokine expression in liver tissue of LPS-treated mice (Western blotting); type: in vivo, mouse; details: LPS and TIP1, 2 hours
hPBMC cells = assay: NO secretion in LPS-treated hPBMC cells; type: cell-based, human; details: together with LPS, FIG. 12(b)

## RQIKIWFQNRRMKWKKSHCRVLLI (TIP1)
[1]
  Poly(I:C)-induced generation of IFN-β: inhibited
NLRP3 inflammasome
  secretion level of IL-1β: decreased
[2]
  LPS-induced secretion level of IL-6: decreased
  LPS-induced secretion level of NO: decreased
  LPS-induced secretion level of TNF-α: decreased
TLR4 signaling pathways
  MAPK activity (phosphorylation of ERK, JNK, p38): MAPK activity is inhibited
  NF-κB activity (Iκ-Bα, Western blotting): NF-κB activity was inhibited
NF-κB (p-p65)
  NF-κB activity (LPS-induced p65 phosphorylation level in the nucleus): NF-κB activity was decreased
RAW 264.7 cells
  extracellular secretion of NO: effectively decreased
TLR7/8
  secretion level of TNF-α: decreased
[3]
  LPS-induced expression level of IL-6 in liver tissue: remarkably decreased
  LPS-induced expression level of TNF-α in liver tissue: remarkably decreased
hPBMC cells
  NO secretion level: highest decreasing effect on NO secretion level
